According to PubChem BioAssay (NCI):
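1) Cells in 96-well plates. 2) Compound, 48 h, 5 concentrations. 3) Linear interpolation between surrounding doses. 4) Unreached endpoint = highest concentration. GI50: concentration for 50% inhibition of growth. TGI is the concentration that stops growth completely.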

Experiments:
Test in all cases: inhibition of tumour cell growth, NCI panel, 48 h; in the data active = GI50 below about 0.43 µM; inactive = the rest
MDA-MB-231 breast = tested on: MDA-MB-231 breast
MALME-3M melanoma = tested on: MALME-3M melanoma
HT29 colon = tested on: HT29 colon
IGROV1 ovarian = tested on: IGROV1 ovarian
NCI-H226 lung = tested on: NCI-H226 lung
M14 melanoma = tested on: M14 melanoma
SK-MEL-5 melanoma = tested on: SK-MEL-5 melanoma
ACHN renal = tested on: ACHN renal
HCC-2998 colon = tested on: HCC-2998 colon
HCT-15 colon = tested on: HCT-15 colon
HL-60(TB) leukemia = tested on: HL-60(TB) leukemia
BT-549 breast = tested on: BT-549 breast
SK-OV-3 ovarian = tested on: SK-OV-3 ovarian
CCRF-CEM leukemia = tested on: CCRF-CEM leukemia
UO-31 renal = tested on: UO-31 renal
SR leukemia = tested on: SR leukemia
HOP-92 NSCLC = tested on: HOP-92 NSCLC
SF-268 CNS = tested on: SF-268 CNS
OVCAR-8 ovarian = tested on: OVCAR-8 ovarian
HOP-62 NSCLC = tested on: HOP-62 NSCLC
RPMI-8226 leukemia = tested on: RPMI-8226 leukemia
SF-539 CNS = tested on: SF-539 CNS
MOLT-4 leukemia = tested on: MOLT-4 leukemia
SN12C renal = tested on: SN12C renal
NCI-H460 lung = tested on: NCI-H460 lung
NCI-H522 lung = tested on: NCI-H522 lung
786-0 renal = tested on: 786-0 renal
CAKI-1 renal = tested on: CAKI-1 renal
SNB-75 CNS = tested on: SNB-75 CNS
SW-620 colon = tested on: SW-620 colon
LOX IMVI melanoma = tested on: LOX IMVI melanoma
KM12 colon = tested on: KM12 colon
PC-3 prostate = tested on: PC-3 prostate
DU-145 prostate = tested on: DU-145 prostate

Cc1ccc(-c2cc3nc(C(Cl)Cl)nc(-c4ccco4)n3n2)cc1
2.35 µM: TGI (DU-145 prostate)
active: GI50 (MDA-MB-231 breast) 0.289 µM | GI50 (HT29 colon) 0.328 µM | GI50 (ACHN renal) 0.273 µM | GI50 (HCC-2998 colon) 0.321 µM | GI50 (HL-60(TB) leukemia) 0.348 µM | GI50 (HOP-92 NSCLC) 0.339 µM | GI50 (HOP-62 NSCLC) 0.298 µM | GI50 (NCI-H460 lung) 0.352 µM | GI50 (SNB-75 CNS) 0.186 µM | GI50 (DU-145 prostate) 0.404 µM
3.99 µM: TGI (UO-31 renal)
1.23 µM: TGI (HT29 colon)
4.49 µM: TGI (PC-3 prostate)
3.25 µM: TGI (HL-60(TB) leukemia)
3.33 µM: TGI (SF-539 CNS)
1.47 µM: TGI (NCI-H460 lung)
1.4 µM: TGI (HCC-2998 colon)
4.74 µM: TGI (CAKI-1 renal)
inactive: GI50 (MALME-3M melanoma) > 100 µM | GI50 (IGROV1 ovarian) 2.65 µM | GI50 (NCI-H226 lung) > 100 µM | GI50 (M14 melanoma) > 100 µM | GI50 (SK-MEL-5 melanoma) > 100 µM | GI50 (HCT-15 colon) 0.845 µM | GI50 (BT-549 breast) > 100 µM | GI50 (SK-OV-3 ovarian) 3.09 µM | GI50 (CCRF-CEM leukemia) > 100 µM | GI50 (UO-31 renal) 0.523 µM | GI50 (SR leukemia) > 100 µM | GI50 (SF-268 CNS) 1.65 µM | GI50 (OVCAR-8 ovarian) 0.604 µM | GI50 (RPMI-8226 leukemia) 2.38 µM | GI50 (SF-539 CNS) 0.927 µM | GI50 (MOLT-4 leukemia) > 100 µM | GI50 (SN12C renal) > 100 µM | GI50 (NCI-H522 lung) > 100 µM | GI50 (786-0 renal) 2.03 µM | GI50 (CAKI-1 renal) 0.832 µM | GI50 (SW-620 colon) 0.583 µM | GI50 (LOX IMVI melanoma) > 100 µM | GI50 (KM12 colon) 1.81 µM | GI50 (PC-3 prostate) 0.506 µM
1.85 µM: TGI (MDA-MB-231 breast)
1.36 µM: TGI (ACHN renal)
> 100 µM: TGI (MALME-3M melanoma) | TGI (IGROV1 ovarian) | TGI (NCI-H226 lung) | TGI (M14 melanoma) | TGI (SK-MEL-5 melanoma) | TGI (HCT-15 colon) | TGI (BT-549 breast) | TGI (SK-OV-3 ovarian) | TGI (CCRF-CEM leukemia) | TGI (SR leukemia) | TGI (SF-268 CNS) | TGI (OVCAR-8 ovarian) | TGI (RPMI-8226 leukemia) | TGI (MOLT-4 leukemia) | TGI (SN12C renal) | TGI (NCI-H522 lung) | TGI (786-0 renal) | TGI (SW-620 colon) | TGI (LOX IMVI melanoma)
2.69 µM: TGI (HOP-92 NSCLC)
3.82 µM: TGI (HOP-62 NSCLC)
5.52 µM: TGI (KM12 colon)
1.71 µM: TGI (SNB-75 CNS)
